In patent US8969338B2, “Ethynyl derivatives” (Hoffmann-La Roche Inc., priority 2011, dated 2015):

Target: T1, human mGlu5a receptor (Homo sapiens, UniProt P41594)
T1 construct: expressed in transfected cells
Assay: Intracellular Ca2+ mobilization assay (mGlu5 PAM)
Assay type: cell-based
Conditions: for EC50: HEK-293 cells stably transfected with human mGlu5a, L-glutamate added at EC20 after pre-incubation with test compound, read-out: EC50 (nM) mGlu5PAM; for Emax: maximal response in % of the maximal stimulatory effect obtained with saturating concentrations of L-glutamate, read-out: Eff. (%)
Procedure: A monoclonal HEK-293 cell line stably transfected with a cDNA encoding for the human mGlu5a receptor was generated; for the work with mGlu5 Positive Allosteric Modulators (PAMs), a cell line with low receptor expression levels and low constitutive receptor activity was selected to allow the differentiation of agonistic versus PAM activity. Cells were cultured according to standard protocols (Freshney, 2000) in Dulbecco's Modified Eagle Medium with high glucose supplemented with 1 mM glutamine, 10% (vol/vol) heat-inactivated bovine calf serum, Penicillin/Streptomycin, 50 μg/ml hygromycin and 15 μg/ml blasticidin (all cell culture reagents and antibiotics from Invitrogen, Basel, Switzerland).
About 24 hrs before an experiment, 5×10^4 cells/well were seeded in poly-D-lysine coated, black/clear-bottomed 96-well plates. The cells were loaded with 2.5 μM Fluo-4AM in loading buffer (1×HBSS, 20 mM HEPES) for 1 hr at 37° C. and washed five times with loading buffer. The cells were transferred into a Functional Drug Screening System 7000 (Hamamatsu, Paris, France), and 11 half logarithmic serial dilutions of test compound at 37° C. were added and the cells were incubated for 10-30 min, with on-line recording of fluorescence. Following this pre-incubation step, the agonist L-glutamate was added to the cells at a concentration corresponding to EC20 (typically around 80 μM) with on-line recording of fluorescence; in order to account for day-to-day variations in the responsiveness of cells, the EC20 of glutamate was determined immediately ahead of each experiment by recording of a full dose-response curve of glutamate.
Responses were measured as peak increase in fluorescence minus basal (i.e. fluorescence without addition of L-glutamate), normalized to the maximal stimulatory effect obtained with saturating concentrations of L-glutamate. Graphs were plotted with the % maximal stimulatory using XLfit, a curve fitting program that iteratively plots the data using Levenburg Marquardt algorithm. The single site competition analysis equation used was y=A+((B−A)/(1+((x/C)D))), where y is the % maximal stimulatory effect, A is the minimum y, B is the maximum y, C is the EC50, x is the log 10 of the concentration of the competing compound and D is the slope of the curve (the Hill Coefficient). From these curves the EC50 (concentration at which half maximal stimulation was achieved), the Hill coefficient as well as the maximal response in % of the maximal stimulatory effect obtained with saturating concentrations of L-glutamate were calculated.
A depression of the signal observed after addition of the EC20 concentration of L-glutamate was indicative of an inhibitory activity of the test compound.

T1 sequence (P41594 21-1180 isoform P41594-2 limits assumed): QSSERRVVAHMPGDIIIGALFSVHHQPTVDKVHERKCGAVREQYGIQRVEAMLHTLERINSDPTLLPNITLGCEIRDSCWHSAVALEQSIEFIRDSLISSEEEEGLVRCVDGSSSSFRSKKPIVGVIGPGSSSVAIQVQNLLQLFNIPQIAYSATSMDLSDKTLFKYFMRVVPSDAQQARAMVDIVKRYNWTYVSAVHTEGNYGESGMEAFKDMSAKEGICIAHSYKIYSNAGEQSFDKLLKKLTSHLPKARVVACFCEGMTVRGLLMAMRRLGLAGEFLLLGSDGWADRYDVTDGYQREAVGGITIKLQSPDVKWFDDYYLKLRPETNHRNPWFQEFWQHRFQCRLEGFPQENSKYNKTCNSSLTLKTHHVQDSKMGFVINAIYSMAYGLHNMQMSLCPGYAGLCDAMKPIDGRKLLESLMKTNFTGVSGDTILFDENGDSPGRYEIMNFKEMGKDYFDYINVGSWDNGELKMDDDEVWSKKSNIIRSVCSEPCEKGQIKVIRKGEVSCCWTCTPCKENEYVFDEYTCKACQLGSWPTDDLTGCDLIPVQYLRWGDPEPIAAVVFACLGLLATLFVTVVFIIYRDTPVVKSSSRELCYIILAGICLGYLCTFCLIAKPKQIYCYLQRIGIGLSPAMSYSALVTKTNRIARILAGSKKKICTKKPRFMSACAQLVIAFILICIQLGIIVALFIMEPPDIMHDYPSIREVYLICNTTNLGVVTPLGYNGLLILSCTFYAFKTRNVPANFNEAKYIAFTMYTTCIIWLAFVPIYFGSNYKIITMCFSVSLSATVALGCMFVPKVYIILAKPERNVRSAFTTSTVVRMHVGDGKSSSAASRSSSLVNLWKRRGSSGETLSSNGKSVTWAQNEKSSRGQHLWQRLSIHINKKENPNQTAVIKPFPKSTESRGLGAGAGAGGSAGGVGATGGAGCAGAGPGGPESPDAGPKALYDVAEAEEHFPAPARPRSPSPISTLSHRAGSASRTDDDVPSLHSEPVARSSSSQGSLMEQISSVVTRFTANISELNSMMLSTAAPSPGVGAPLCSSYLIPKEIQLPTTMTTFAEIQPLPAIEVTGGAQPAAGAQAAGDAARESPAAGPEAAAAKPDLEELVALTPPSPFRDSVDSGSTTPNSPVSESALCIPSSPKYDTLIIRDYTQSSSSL

| SMILES | EC50 | Emax |
| --- | --- | --- |
| CC1(C)CC(=O)N(c2ccc(C#Cc3ccccc3)nc2)N1 [Example 8, 5,5-Dimethyl-2-(6-phenylethynyl-pyridin-3-yl)-pyrazolidin-3-one] | 62 nM | 56% |
| CN1C(=O)N(c2ccc(C#Cc3cccc(F)c3)nc2)CC1(C)C [Example 5, 1-[6-(3-Fluoro-phenylethynyl)-pyridin-3-yl]-3,4,4-trimethyl-imidazolidin-2-one] | 19 nM | 42% |
| CN1N(c2ccc(C#Cc3cc(F)ccc3F)nc2)C(=O)CC1(C)C [Example 14, 2-[6-(2,5-Difluoro-phenylethynyl)-pyridin-3-yl]-1,5,5-trimethyl-pyrazolidin-3-one] | 53 nM | 57% |
| CN1C(=O)N(c2ccc(C#Cc3ccccc3)nc2)CC1(C)C [Example 3, 3,4,4-Trimethyl-1-(6-phenylethynyl-pyridin-3-yl)-imidazolidin-2-one] | 15 nM | 45% |
| CC1(C)CC(=O)N(c2ccc(C#Cc3cc(F)ccc3F)nc2)N1 [Example 16, 2-[6-(2,5-Difluoro-phenylethynyl)-pyridin-3-yl]-5,5-dimethyl-pyrazolidin-3-one] | 40 nM | 41% |
| CN1N(c2ccc(C#Cc3cccc(F)c3)nc2)C(=O)CC1(C)C [Example 13, 2-[6-(3-Fluoro-phenylethynyl)-pyridin-3-yl]-1,5,5-trimethyl-pyrazolidin-3-one] | 38 nM | 63% |
| CC1(C)CC(=O)N(c2ccc(C#Cc3cccc(F)c3)nc2)C1 [Example 7, 1-[6-(3-Fluoro-phenylethynyl)-pyridin-3-yl]-4,4-dimethyl-pyrrolidin-2-one] | 39 nM | 62% |
| CN1N(c2ccc(C#Cc3ccccc3)nc2)C(=O)CC1(C)C [Example 12, 1,5,5-Trimethyl-2-(6-phenylethynyl-pyridin-3-yl)-pyrazolidin-3-one] | 40 nM | 66% |
| CC1(C)CCN(c2ccc(C#Cc3ccccc3)nc2)C(=O)O1 [Example 2, 6,6-Dimethyl-3-(6-phenylethynyl-pyridin-3-yl)-[1,3]oxazinan-2-one] | 96 nM | 85% |
| CC1(C)CC(=O)N(c2cnc(C#Cc3ccccc3)nc2)C1 [Example 9] | 36 nM | 39% |
| CN1C(=O)N(c2ccc(C#Cc3cccnc3)nc2)CC1(C)C [Example 6, 3,4,4-Trimethyl-1-(6-pyridin-3-ylethynyl-pyridin-3-yl)-imidazolidin-2-one] | 241 nM | 36% |
| CC1(C)CC(=O)N(c2ccc(C#Cc3ccccc3)nc2)C1 [Example 1, 4,4-Dimethyl-1-(6-phenylethynyl-pyridin-3-yl)-pyrrolidin-2-one] | 49 nM | 75% |
| CCN1C(=O)N(c2cnc(C#Cc3ccccc3)nc2)CC1(C)C [Example 11, 3-Ethyl-4,4-dimethyl-1-(2-phenylethynyl-pyrimidin-5-yl)-imidazolidin-2-one] | 79 nM | 52% |
| CC1(C)CC(=O)N(c2ccc(C#Cc3cccc(F)c3)nc2)N1 [Example 15, 2-[6-(3-Fluoro-phenylethynyl)-pyridin-3-yl]-5,5-dimethyl-pyrazolidin-3-one] | 68 nM | 38% |
| CN1C(=O)N(c2ccc(C#Cc3ccc(F)cc3)nc2)CC1(C)C [Example 4, 1-[6-(4-Fluoro-phenylethynyl)-pyridin-3-yl]-3,4,4-trimethyl-imidazolidin-2-one] | 50 nM | 44% |
